Data published in the supplement of paper PMC10949913.
Where “and” joins values, the source holds several entries; their conditions need not be identical. Identical values can stand only once.

How the values were obtained:
[1] = tested on: CU-ACC1; experiment: area under concentration-response curve (viability) (AUC (a.u.)); higher = less active; details: 48 h
How it was run: (§1)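 Three adrenocortical carcinoma cell lines were exposed for 48 h to library compounds at 11 concentrations in 1,536-well plates, then read by CellTiter-Glo luminescence. Signals were scaled per plate against vehicle and empty-well controls. From fitted concentration-response curves of inhibitory or non-responding classes alone, AC50 and area under the curve were obtained.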

[2] = tested on: NCI-H295R; experiment: as above; details: 48 h
How it was run: as §1

CC[C@H]1OC(=O)[C@H](C)[C@@H](O[C@H]2C[C@@](C)(OC)[C@@H](O)[C@H](C)O2)[C@H](C)[C@@H](O[C@@H]2O[C@H](C)C[C@H](N(C)C)[C@H]2O)[C@](C)(O)C[C@@H](C)CN(C)[C@H](C)[C@@H](O)[C@]1(C)O
area under concentration-response curve [1]: 310

CCCN(CCC)C(=O)C\1=C\C2=CC=C(C=C2\N=C(N)/C1)C3=CC=C(C=C3)C(=O)N4CCCC4
area under concentration-response curve [2]: 581

CC(C)Oc1ccc2c(=O)c(-c3ccccc3)coc2c1
area under concentration-response curve [2]: 559

O=C(CCc1ccc(O)cc1)c1c(O)cc(O)cc1O[C@@H]1O[C@H](CO)[C@@H](O)[C@H](O)[C@H]1O
area under concentration-response curve [2]: 242

CO[C@@]12[C@H](COC(N)=O)C/3=C(N1C[C@@H]4N[C@H]24)/C(=O)/C(=C(N)\C3=O)C
area under concentration-response curve [1]: 378

Cc1ncc(Cl)cc1NCc1ccc(C(=O)NC(CC2CCCC2)C(=O)NC2CC2)s1 (stereo not given)
area under concentration-response curve [1]: 467

C[C@@H]1CCN(C(=O)CC#N)C[C@@H]1N(C)c1ncnc2[nH]ccc12
area under concentration-response curve [1]: 305

C/C=C(/C(=C/C)c1ccc(O)cc1)c1ccc(O)cc1
area under concentration-response curve [2]: 366

C[C@@H]1C(=O)O[C@H]2CC34[C@H]5C[C@@H](C(C)(C)C)C36[C@@H](OC(=O)[C@@H]6O)O[C@@]4(C(=O)O5)[C@]21O (stereo not given in full)
area under concentration-response curve [2]: 21.9

CCN(CCO)CCCC(C)Nc1ccnc2cc(Cl)ccc12 (stereo not given)
area under concentration-response curve [2]: 368

CC1OC(OC/2=C(/OC3=C(C(=CC(=C3)O)O)C2=O)C4=CC=C(O)C=C4)C(O)C(OC(C)=O)C1OC(C)=O (stereo not given)
area under concentration-response curve [2]: 289

COc1ncc(-c2ccc3c(Nc4cc(Oc5cc(F)cc(F)c5)cc(C(=O)O)c4)c([S+](=O)([O-])NC4CC4)cnc3c2)c(OC)n1
area under concentration-response curve [2]: 516

O=c1[nH]c2ccccc2n1CCCN1CCC(n2c(=O)[nH]c3cc(Cl)ccc32)CC1
area under concentration-response curve [2]: 539

COc1ccc(-c2cnc3c(-c4cccc5ncccc45)cnn3c2)cc1
area under concentration-response curve [2]: 595

COc1cc2c(Oc3ccc4[nH]c(C)cc4c3F)ccnc2cc1OCC1(N)CC1
area under concentration-response curve [1]: 534

O=[S+]([O-])(CC1CS1)c1ccc(Oc2ccccc2)cc1 (stereo not given)
area under concentration-response curve [2]: 542

CCOC(=O)\C1=C(/C)N\C2=C(C1C3=CC=C(C=C3)C4=CC=CC=C4)\C(=O)CC(C)(C)C2 (stereo not given)
area under concentration-response curve [1]: 552

O=C(/C=C/N1C[C@H]2C[C@@H]1CN2c1ccccn1)c1ccccc1O
area under concentration-response curve [1]: 306

COc1ccc2cc(-c3[nH]c(-c4ccc([S+](C)[O-])cc4)nc3-c3ccncc3)ccc2c1 (stereo not given)
area under concentration-response curve [1]: 472

CCCCCNC(=O)N1CCC(CN(Cc2ccc(Cl)cc2)Cc2ccc([N+](=O)[O-])s2)C1 (stereo not given)
area under concentration-response curve [1]: 509

N[S+](=O)([O-])c1ccc(Nc2nc(OCC3CCCCC3)c3[nH]cnc3n2)cc1
area under concentration-response curve [2]: 554

O=C(NCCCCN1CCOCC1)c1cc2ccccc2o1
area under concentration-response curve [1]: 461

NC\1=N\C(=O)N(\C=C1)[C@H]\2[C@H](O)[C@H](O)C(=C2F)\CO
area under concentration-response curve [1]: 336

O=C(O)C[C@H]1CCc2c1[nH]c1ccc(OCc3ccc(C4CCCC4)c(C(F)(F)F)c3)cc21
area under concentration-response curve [1]: 506

CCCCN(CCCC)C(=O)CN1C[C@H](c2ccc3c(c2)OCO3)[C@@H](C(=O)O)[C@@H]1c1ccc(OC)cc1
area under concentration-response curve [1]: 460

O=C(O)CCCCCC(=O)NN=C1CCCC1
area under concentration-response curve [2]: 548

COc1ccc(Cc2ccc(NC(N)=O)cc2)cc1-c1cccc(Cl)c1
area under concentration-response curve [1]: 480

C[C@]12CC[C@H]3[C@@H](CC(=C)\C4=C\C(=O)\C=C/[C@]34C)[C@@H]1CCC2=O
area under concentration-response curve [1]: 320

OC[C@H]1O[C@H]([C@H](O)[C@@H](O)[C@@H]1O)C2=C(O)C=CC3=C2O/C=C(C3=O)/C4=CC=C(O)C=C4
area under concentration-response curve [2]: 540

CN1\N=N/C2=C(N=C[N]2C1=O)C(N)=O
area under concentration-response curve [2]: 581

FC1=CC=C(CN2\C=C/C=C(/C(=O)N[C@@H](COC3=CC4=C(NC(=O)N4)C=C3)C5=CC=CC=C5)C2=O)C=C1F
area under concentration-response curve [1]: 546

Cc1c(C)n(Cc2ccc(-c3ccccc3C(=O)O)cc2)c2ccc(C(=O)N[C@@H](C)c3ccc([N+](=O)[O-])cc3)cc12
area under concentration-response curve [2]: 402

COc1ccc([S+](=O)([O-])Nc2cc(-c3c(O)ccc4ccccc34)c(O)c3ccccc23)cc1
area under concentration-response curve [1]: 482

OC1=CC=C(C=C1)\C2=C\C(=O)C3=C(O2)C=C(O)C=C3O
area under concentration-response curve [2]: 389

O=C(O)c1ccc(-c2c[nH]c3ncc(-c4ccccc4)cc23)cc1C1CCCC1
area under concentration-response curve [2]: 501

CCc1cc(C(N)=S)ccn1
area under concentration-response curve [2]: 552

CNCc1ccc(-c2cc(-c3nc(-c4ccc([S+](=O)([O-])C(C)C)cc4)cnc3N)on2)cc1
area under concentration-response curve [2]: 413

O=C(O)CCCCC(CCSCc1ccccc1)SCc1ccccc1 (stereo not given)
area under concentration-response curve [2]: 589

Clc1ccc(Nc2nnc(Cc3ccncc3)c3ccccc23)cc1
area under concentration-response curve [2]: 295

NC(=O)c1c(OCc2c(F)cc(Br)cc2F)nsc1NC(=O)NCCCCN1CCCC1
area under concentration-response curve [1]: 395

CN(C)Cc1cccc(N/C(=C2\C(=O)Nc3cc(C(=O)N(C)C)ccc32)c2ccccc2)c1
area under concentration-response curve [2]: 558

Clc1ccc(COC(Cn2ccnc2)c2ccc(Cl)cc2Cl)cc1 (stereo not given)
area under concentration-response curve [1]: 433

OC[C@H]1O[C@@H](Oc2cc(O)cc(/C=C/c3ccc(O)cc3)c2)[C@H](O)[C@@H](O)[C@@H]1O
area under concentration-response curve [2]: 579

C=CC(=O)N1CCC[C@@H](n2nc(-c3ccc(Oc4ccccc4)cc3)c3c(N)ncnc32)C1
area under concentration-response curve [2]: 459

CSC1=CC(=CC=C1)NC2=NC3=C(C=N2)/C=C(C(=O)N3C)/C4=C(Cl)C=CC=C4Cl
area under concentration-response curve [2]: 495

CC1(C)CCC2(CC1)N[C@@H](C(=O)N[C@@H]1CC[C@@H](C(N)=O)OC1)[C@H](c1ccnc(Cl)c1F)[C@]21C(=O)Nc2cc(Cl)ccc21
area under concentration-response curve [1]: 501

CCOC(=O)c1ncn2c1CN(C)C(=O)c1cc(F)ccc1-2
area under concentration-response curve [2]: 532

OC1=CC(=C(C=C1)\C2=C(O)\C(=O)C3=C(O2)C=C(O)C=C3O)O
area under concentration-response curve [2]: 591

OCCN(CCO)c1nc(N2CCCCC2)c2nc(N(CCO)CCO)nc(N3CCCCC3)c2n1
area under concentration-response curve [1]: 478

Cc1ccc(-c2ncc(Cl)cc2-c2ccc([S+](C)(=O)[O-])cc2)cn1
area under concentration-response curve [1]: 366

COc1cccc(OCCCN)c1-c1cc(Nc2cnc(C#N)cn2)n[nH]1
area under concentration-response curve [1]: 347

CCOC(=O)c1ccc(C#Cc2ccc3c(c2)C(C)(C)CCS3)nc1
area under concentration-response curve [1]: 505

CNC(=O)[C@H]1O[C@@H](n2cnc3c(NCc4cccc(I)c4)nc(Cl)nc32)[C@H](O)[C@@H]1O
area under concentration-response curve [2]: 366

O=C(O)CCCc1ccc(N(CCCl)CCCl)cc1
area under concentration-response curve [1]: 300

COc1cc2c(cc1O)CC[C@@H]1[C@@H]2CC[C@]2(C)[C@@H](O)CC[C@@H]12
area under concentration-response curve [2]: 383

CC\12CCC(=O)\C=C1CCC3C2CCC4(C)C3CCC4(O)C#C (stereo not given)
area under concentration-response curve [2]: 440

O=C(O)Cc1cccc(OCCCN(Cc2cccc(C(F)(F)F)c2Cl)CC(c2ccccc2)c2ccccc2)c1
area under concentration-response curve [1]: 535

O=C(O)CCCc1c[nH]c2ccccc12
area under concentration-response curve [2]: 400

CC(=O)c1c(O)c(C)c(O)c(Cc2c(O)c3c(c(C(=O)/C=C/c4ccccc4)c2O)OC(C)(C)C=C3)c1O
area under concentration-response curve [1]: 323

CCC[S+](=O)([O-])Nc1ccc(F)c(C(=O)c2c[nH]c3ncc(-c4ccc(Cl)cc4)cc23)c1F
area under concentration-response curve [2]: 556

OC[C@H]1O[C@H]([C@@H](F)[C@@H]1O)N2\C=C/C(=O)NC2=O
area under concentration-response curve [1]: 370

CC(C)[S+](=O)([O-])c1ccc2nccc(Nc3ccc4scnc4c3)c2c1
area under concentration-response curve [2]: 491

Cc1ccc(NC(=O)c2ccc(CN3CC[C@H](N(C)C)C3)c(C(F)(F)F)c2)cc1Nc1nccc(-c2cncnc2)n1
area under concentration-response curve [1]: 549

NC(=O)c1ncn([C@@H]2O[C@H](CO)[C@@H](O)[C@H]2O)c1O
area under concentration-response curve [2]: 401 and 302

CCc1cc2c(cc1N1CCC(N3CCOCC3)CC1)C(C)(C)c1[nH]c3cc(C#N)ccc3c1C2=O
area under concentration-response curve [1]: 416

CCN1CCN(C(=O)N[C@@H](C(=O)N[C@H]2[C@H]3SC\C(=C(/N3C2=O)C(O)=O)CSC4=NN=N[N]4C)C5=CC=C(O)C=C5)C(=O)C1=O
area under concentration-response curve [2]: 269

O=P1(NCCCl)OCCCN1CCCl (stereo not given)
area under concentration-response curve [2]: 553

CC(C)(O)c1coc([S+](=O)([O-])NC(=O)Nc2c3c(cc4c2CCC4)CCC3)c1
area under concentration-response curve [2]: 555

Cc1cc(C)cc(NC(=O)Cc2ccc(OC(C)(C)C(=O)O)cc2)c1
area under concentration-response curve [1]: 504

CCc1c(O)cc(O)c(C(=O)c2ccc(OCCN3CCOCC3)c(OC)c2)c1CC(=O)N(CCOC)CCOC
area under concentration-response curve [1]: 216

CCCN[C@H]1CCc2nc(N)sc2C1
area under concentration-response curve [2]: 566

COc1ccc(N(C(=O)Oc2c(C)cccc2C)c2ccnc(Nc3ccc(N4CCN(C)CC4)cc3)n2)c(OC)c1
area under concentration-response curve [2]: 545

NC(=O)c1cccc2cn(-c3ccc([C@@H]4CCCNC4)cc3)nc12
area under concentration-response curve [1]: 444

CCCCCCCN(CC)CCCC(O)c1ccc(N[S+](C)(=O)[O-])cc1 (stereo not given)
area under concentration-response curve [1]: 398

O=[S+]([O-])(O)c1ccc2cc(/N=N/c3cc([S+](=O)([O-])O)c4cccnc4c3O)ccc2c1
area under concentration-response curve [1]: 500
